Results taken from US9133167B2, “Antibacterial quinoline derivatives” (JANSSEN PHARMACEUTICA NV, priority 2012, dated 2015).
Values after ≈ are worked out from the molar mass of the structure shown. Structures can show the parent of a compound that is named as a salt.

Assays:
[1] = test system: Staphylococcus aureus (ATCC29213); assay: Microtitre plate assay, IC90 for bacterial growth, Staphylococcus aureus strain; assay type: cell-based; details: 90% inhibitory concentration for bacterial growth, 24 hours at 37° C.; for IC90: read-out: IC90 (μg/ml) STA B29213
Description: D.2. In-Vitro Method for Testing Compounds for Anti-Bacterial Activity Against a Non-Mycobacterial Strain
Preparation of Bacterial Suspensions for Susceptibility Testing:
The bacteria used in this study were grown overnight in flasks containing 100 ml Mueller-Hinton Broth (Becton Dickinson—cat. no. 275730) in sterile de-ionized water, with shaking, at 37° C. Stocks (0.5 ml/tube) were stored at −70° C. until use. Bacteria titrations were performed in microtiter plates to detect the TCID50, in which TCID50 represents the dilution that gives rise to bacterial growth in 50% of inoculated cultures. In general, an inoculum level of approximately 100 TCID50 was used for susceptibility testing.
Anti Bacterial Susceptibility Testing: IC90 Determination
Flat-bottom, sterile 96-well plastic microtiter plates were filled with 180 μl of sterile deionized water, supplemented with 0.25% BSA. Subsequently, stock solutions (7.8× final test concentration) of compounds were added in 45 μl volumes in column 2 Serial five-fold dilutions (45 μl in 180 μl) were made directly in the microtiter plates from column 2 to reach column 11. Untreated control samples with (column 1) and without (column 12) inoculum were included in each microtiter plate. Depending on the bacteria type, approximately 10 to 60 CFU per well of bacteria inoculum (100 TCID50), in a volume of 100 μl in 2.8× Mueller-Hinton broth medium, was added to the rows A to H, except column 12. The same volume of broth medium without inoculum was added to column 12 in row A to H. The cultures were incubated at 37° C. for 24 hours under a normal atmosphere (incubator with open air valve and continuous ventilation). At the end of incubation, one day after inoculation, the bacterial growth was quantitated fluorometrically. Therefore resazurin (0.6 mg/ml) was added in a volume of 20 μl to all wells 3 hours after inoculation, and the plates were re-incubated overnight. A change in colour from blue to pink indicated the growth of bacteria. The fluorescence was read in a computer-controlled fluorometer (Cytofluor Biosearch) at an excitation wavelength of 530 nm and an emission wavelength of 590 nm. The % growth inhibition achieved by the compounds was calculated according to standard methods. The IC90 (expressed in μg/ml) was defined as the 90% inhibitory concentration for bacterial growth. The results are shown in Table 7 for an assay using a Staphylococcus aureus strain.

[2] = test system: Mycobacterium smegmatis (ATCC607); assay: In-vitro anti-bacterial activity against strain M. smegmatis ATCC607 (Alamar Blue growth inhibition); assay type: cell-based; details: 90% inhibitory concentration for bacterial growth, 48 hours at 37° C.; for IC90: Mycolicibacterium smegmatis, read-out: IC90 (μg/ml) MSM 607
Description: D.1. In-Vitro Method for Testing Compounds for Anti-Bacterial Activity Against Strain M. Smegmatis ATCC607.
Flat-bottom, sterile 96-well plastic microtiter plates were filled with 180 μl of sterile deionized water, supplemented with 0.25% BSA. Subsequently, stock solutions (7.8× final test concentration) of compounds were added in 45 μl volumes to a series of duplicate wells in column 2 so as to allow evaluation of their effects on bacterial growth. Serial five-fold dilutions (45 μl in 180 μl) were made directly in the microtiter plates from column 2 to 11 using a customised robot system (Zymark Corp., Hopkinton, Mass.). Pipette tips were changed after every 3 dilutions to minimize pipetting errors with high hydrophobic compounds. Untreated control samples with (column 1) and without (column 12) inoculum were included in each microtiter plate. Approximately 250 CFU per well of bacteria inoculum, in a volume of 100 in 2.8× Mueller-Hinton broth medium, was added to the rows A to H, except column 12. The same volume of broth medium without inoculum was added to column 12 in row A to H. The cultures were incubated at 37° C. for 48 hours in a humidified 5% CO2 atmosphere (incubator with open air valve and continuous ventilation). At the end of incubation, two days after inoculation, the bacterial growth was quantitated fluorometrically. Therefore Alamar Blue (10×) was added to all wells in a volume of 20 and plates were incubated for another 2 hours at […]
The fluorescence was read in a computer-controlled fluorometer (Cytofluor, Biosearch) at an excitation wavelength of 530 nm and an emission wavelength of 590 nm (gain 30). The percentage growth inhibition achieved by the compounds was calculated according to standard methods and expressed as IC90 […] which defines the 90% inhibitory concentration for bacterial growth.

| IC90 (μg/ml) STA B29213 [1] [µg/mL] | IC90 (μg/ml) MSM 607 [2] [µg/mL] | Compound | also measured |
| --- | --- | --- | --- |
| – | – | CS(=O)(=O)c1ccc2[nH]c(=O)c(C(c3ccccc3)C3(O)CCNCC3)cc2c1 (centres unmarked) (as salt: HCl) [Compound 100] | melting point: > 260 °C |
| 3.16 | 0.63 | COc1nc2ccc(C(C)C)cc2cc1C(c1ccc(Cl)cc1)C1(O)CCN(CCc2ccccc2)CC1.O=C(O)/C=C/C(=O)O (racemic) [Compound 91] | – |
| 10.83 | 3.05 | COc1nc2ccc(-c3cccnc3)cc2cc1C(c1ccc(Cl)cc1)C1(O)CCNCC1.O=C(O)/C=C/C(=O)O (racemic) [Compound 93] | – |
| 14.99 (≈ 31.6 µM) | 6.70 (≈ 14.1 µM) | COc1nc2ccc(-c3cccnc3)cc2cc1C(c1ccc(Cl)cc1)C1(O)CCN(C)CC1 (racemic) [Compound 94] | – |
| 15.22 | 6.06 | COc1nc2ccc(Br)cc2cc1C(c1ccccc1Cl)C1(O)CCNCC1.O=C(O)/C=C/C(=O)O (racemic) [Compound 95] | – |
| 16.25 | 4.08 | COc1nc2ccc(-c3cccnc3)cc2cc1C(c1ccccc1Cl)C1(O)CCNCC1.O=C(O)/C=C/C(=O)O (racemic) [Compound 97] | – |
| 15.62 | 7.83 | COc1nc2ccc(Br)cc2cc1C(c1cccc(Cl)c1)C1(O)CCNCC1.O=C(O)/C=C/C(=O)O (racemic) [Compound 98] | – |
| >13.31 | >13.31 | COc1nc2ccc(S(C)(=O)=O)cc2cc1C(c1ccccc1)C1(O)CCNCC1.O=C(O)/C=C/C(=O)O (racemic) [Compound 99] | – |
| 14.49 | 14.49 | COc1nc2ccc(Br)cc2cc1C(c1ccc(Cl)cc1)C1(O)CCN(Cc2cccc(C#N)c2)CC1.O=C(O)/C=C/C(=O)O (racemic) [Compound 105] | – |
| – | – | OC1(C(c2ccc(Cl)cc2)c2cc3cc(Br)ccc3nc2N2CCOCC2)CCN(CCc2ccccc2)CC1 (centres unmarked) [Compound 1] | IC90 [1]: 6.81 µg/mL (≈ 11 µM); melting point: 158 °C |
| – | – | COc1nc2ccc(Br)cc2cc1C(c1ccc(Cl)cc1)C1(O)CCN(Cc2ccccc2)CC1 (centres unmarked) [Compound 6] | IC90 [1]: > 13.9 µg/mL; IC90 [2]: > 13.9 µg/mL |
| – | – | O=c1[nH]c2ccc(Br)cc2cc1C(c1ccc(Cl)cc1)C1(O)CCN(Cc2ccccc2)CC1 (centres unmarked) [Compound 10] | IC90 [1]: 4.27 µg/mL (≈ 7.94 µM); melting point: 244 °C |
| – | – | C=Cc1ccc2nc(OC)c(C(c3ccc(Cl)cc3)C3(O)CCN(Cc4ccccc4)CC3)cc2c1 (centres unmarked) [Compound 11] | IC90 [1]: > 39.8 µg/mL; melting point: 195 °C |
| – | – | COc1nc2ccccc2cc1C(c1ccccc1)C1(O)CCNCC1 (centres unmarked) [Compound 12] | IC90 [1]: > 22 µg/mL; melting point: 119 °C |
| – | – | COc1nc2ccc(C#N)cc2cc1C(c1ccc(Cl)cc1)C1(O)CCN(Cc2ccccc2)CC1 (centres unmarked) [Compound 13] | IC90 [1]: 25.6 µg/mL (≈ 51.3 µM); melting point: 199 °C |
| – | – | COc1nc2ccc(Br)cc2cc1C(c1ccc(S(C)(=O)=O)cc1)C1(O)CCNCC1 (centres unmarked) [Compound 19] | IC90 [1]: > 16.1 µg/mL; IC90 [2]: > 16.1 µg/mL |
| – | – | COc1nc2ccc(Br)cc2cc1C(c1ccc(S(C)(=O)=O)cc1)C1(O)CCN(Cc2ccccc2)CC1 (centres unmarked) [Compound 20] | IC90 [1]: 7.5 µg/mL (≈ 12.6 µM); IC90 [2]: 3.76 µg/mL (≈ 6.31 µM) |
| >27.85 | 11.09 (≈ 25.1 µM) | COc1nc2ccc(Br)cc2cc1C(c1ccccc1)C1(O)CCN(C)CC1 (centres unmarked) [Compound 28] | – |
| 17.86 | 4.49 | COc1nc2ccc(Br)cc2cc1C(c1ccc(Cl)cc1)C1(O)CCN(CCc2ccccc2)CC1.O=C(O)/C=C/C(=O)O (centres unmarked) [Compound 47] | – |
| – | – | COc1nc2ccc(Br)cc2cc1C(c1ccc(C#N)cc1)C1(O)CCN(Cc2ccccc2)CC1 (centres unmarked) [Compound 58] | IC90 [1]: 8.47 µg/mL (≈ 15.6 µM); melting point: 220 °C |

| IC90 (μg/ml) STA B29213 [1] [µg/mL] | IC90 (μg/ml) MSM 607 [2] [µg/mL] | Compound | also measured |
| --- | --- | --- | --- |
| 15.85 (≈ 29.8 µM) | 3.16 (≈ 5.95 µM) | COc1nc2ccc(Br)cc2cc1C(c1cccc(C)c1)C1(O)CCN(Cc2ccccc2)CC1 (centres unmarked) [Compound 61] | – |
| 15.85 (≈ 28 µM) | 3.16 (≈ 5.58 µM) | COc1nc2ccc(Br)cc2cc1C(c1ccc(Cl)cc1)C1(O)CCN(Cc2ccccc2C)CC1 (centres unmarked) [Compound 62] | – |
| >21.99 | – | COc1nc2ccc(C#N)cc2cc1C(c1ccc(Cl)cc1)C1(O)CCN(Cc2ccc(C)cc2)CC1 (centres unmarked) [Compound 76] | – |
| >47.23 | – | O=C(O)/C=C/C(=O)O.OC1(C(c2ccc(Cl)cc2)c2cc3cc(Br)ccc3nc2N2CCOCC2)CCN(Cc2ccccc2)CC1 (centres unmarked) [Compound 77] | – |
| 13.47 (≈ 25.1 µM) | – | O=c1[nH]c2ccc(-c3cccnc3)cc2cc1C(c1ccc(Cl)cc1)C1(O)CCN(Cc2ccccc2)CC1 (centres unmarked) [Compound 78] | – |
| 28.25 (≈ 63.1 µM) | – | O=c1[nH]c2ccc(Br)cc2cc1C(c1ccc(Cl)cc1)C1(O)CCNCC1 (centres unmarked) [Compound 79] | – |
| 10.05 | – | COc1ccc2nc(OC)c(C(c3ccc(Cl)cc3)C3(O)CCN(Cc4ccccc4)CC3)cc2c1.O=C(O)/C=C/C(=O)O (centres unmarked) [Compound 81] | – |
| 34.54 | – | COc1nc2ccc(Br)cc2cc1C(C1Oc2ccccc2O1)C1(O)CCN(Cc2ccccc2)CC1.O=C(O)/C=C/C(=O)O (centres unmarked) [Compound 85] | – |
| >43.95 | – | COc1nc2ccc(C(F)(F)F)cc2cc1C(c1ccc(Cl)cc1)C1(O)CCN(Cc2ccccc2)CC1.O=C(O)/C=C/C(=O)O (centres unmarked) [Compound 86] | – |
| >48.13 | – | O=C(O)/C=C/C(=O)O.OC1(C(c2ccc(Cl)cc2)c2cc3cc(Br)ccc3nc2N2CCCCC2)CCN(Cc2ccccc2)CC1 (centres unmarked) [Compound 87] | – |
| 3.98 (≈ 7.21 µM) | 3.16 (≈ 5.73 µM) | COc1nc2ccc(Cl)cc2cc1C(c1ccc(Br)cc1)C1(O)CCN(Cc2ccccc2)CC1 (centres unmarked) [Compound 88] | – |
| >41.36 | – | COc1nc2ccc(C(C)C)cc2cc1C(c1ccc(Cl)cc1)C1(O)CCN(Cc2ccccc2)CC1.O=C(O)/C=C/C(=O)O (centres unmarked) [Compound 90] | – |
| 13.86 (≈ 25.1 µM) | 6.19 (≈ 11.2 µM) | Cn1c(=O)c(C(c2ccc(Cl)cc2)C2(O)CCN(Cc3ccccc3)CC2)cc2cc(Br)ccc21 (centres unmarked) [Compound 96] | – |
| – | – | CS(=O)(=O)c1ccc2[nH]c(=O)c(C(c3ccccc3)C3(O)CCNCC3)cc2c1 (centres unmarked) [Compound 100] | IC90 [1]: > 11.3 µg/mL; IC90 [2]: > 11.3 µg/mL |
| >12.04 | 12.04 | Cl.O=c1[nH]c2ccc(Br)cc2cc1C(c1cccc(Cl)c1)C1(O)CCNCC1 (centres unmarked) [Compound 101] | – |
| 14.58 | 11.58 | CCn1c(=O)c(C(c2ccc(Cl)cc2)C2(O)CCNCC2)cc2cc(Br)ccc21.O=C(O)/C=C/C(=O)O (centres unmarked) [Compound 102] | – |
| >11.93 | >11.93 | Cl.N#Cc1ccc(C(c2cc3cc(Br)ccc3[nH]c2=O)C2(O)CCNCC2)cc1 (centres unmarked) [Compound 103] | – |
| >12.96 | 12.96 (≈ 25.1 µM) | COc1nc2ccc(C(N)=O)cc2cc1C(c1ccc(Cl)cc1)C1(O)CCN(Cc2ccccc2)CC1 (centres unmarked) [Compound 107] | – |
| >13.67 | >13.67 | COc1nc2ccc(C(=O)N(C)C)cc2cc1C(c1ccc(Cl)cc1)C1(O)CCN(Cc2ccccc2)CC1 (centres unmarked) [Compound 108] | – |
